# Assays:
# Assay type in all cases: biochemical
# UTX (KDM6A) = target: T1, UTX (KDM6A) (Homo sapiens, UniProt O15550); assay: Histone lysine demethylase AlphaLISA assay, UTX; conditions: substrate BK27M3
# T1 construct: 919-1401; host or cells: E. coli
# Description: (§1) Example 2: Histone Lysine Demethylase AlphaLISA Assays for IC50 Value Determination
# (§2) Assays are performed analogously to the protocol described by Perkin Elmer (Roy et al. Perkin Elmer Technical Note: AlphaLISA #12, April 2011).
# (§3) Enzymes are dissolved in enzyme buffer and incubated for 10 min before 5 μL is added to 5 μL 3% DMSO solutions of compounds in enzyme buffer. Incubated for another 10 minutes, before 5 μL substrate solution is added and the reaction mixture is incubated at room temperature for the given period. 10 μL acceptor beads, suspended at given dilutions in Epigenetic Buffer (Perkin Elmer AL008) from stock, are added and the suspension is incubated 60 minutes in the dark at room temperature, before 10 μL suspension (at the given dilutions in Epigenetic Buffer) of streptavidin donor beads (Perkin Elmer 6760002) in Epigenetic Buffer is added. After incubation at room temperature in the dark the plates are read. Reaction conditions are seen in Table 2b.
# GASC1 (KDM4C, JMJD2C) = target: T2, GASC1 (KDM4C, JMJD2C) (Homo sapiens, UniProt Q9H3R0); assay: Histone lysine demethylase AlphaLISA assay, GASC1; conditions: substrate BK9M3
# T2 construct: 1-349; host or cells: E. coli
# T2 sequence (Q9H3R0 1-349): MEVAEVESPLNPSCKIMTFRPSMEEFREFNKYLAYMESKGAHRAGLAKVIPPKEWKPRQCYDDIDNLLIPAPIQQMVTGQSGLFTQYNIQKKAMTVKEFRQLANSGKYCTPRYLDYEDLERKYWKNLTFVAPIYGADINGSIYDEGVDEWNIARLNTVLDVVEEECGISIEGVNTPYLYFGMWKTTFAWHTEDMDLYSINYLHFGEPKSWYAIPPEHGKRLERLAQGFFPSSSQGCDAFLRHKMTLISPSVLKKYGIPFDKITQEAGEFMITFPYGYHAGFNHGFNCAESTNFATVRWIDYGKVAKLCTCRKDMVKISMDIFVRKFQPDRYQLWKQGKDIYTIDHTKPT
# Outline: (§4)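 AlphaLISA read-out, IC50. Enzyme 10 min preinc → + cpd (3% DMSO soln) 10 min → + substrate, RT → acceptor beads 60 min dark RT → streptavidin donor beads, dark RT → read.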
# PLU1 (KDM5B) = target: T3, PLU1 (KDM5B) (Homo sapiens, UniProt Q9UGL1); assay: Histone lysine demethylase AlphaLISA assay, PLU1; conditions: substrate H3K4M3B
# T3 construct: 1-809; host or cells: E. coli
# T3 sequence (Q9UGL1 1-809): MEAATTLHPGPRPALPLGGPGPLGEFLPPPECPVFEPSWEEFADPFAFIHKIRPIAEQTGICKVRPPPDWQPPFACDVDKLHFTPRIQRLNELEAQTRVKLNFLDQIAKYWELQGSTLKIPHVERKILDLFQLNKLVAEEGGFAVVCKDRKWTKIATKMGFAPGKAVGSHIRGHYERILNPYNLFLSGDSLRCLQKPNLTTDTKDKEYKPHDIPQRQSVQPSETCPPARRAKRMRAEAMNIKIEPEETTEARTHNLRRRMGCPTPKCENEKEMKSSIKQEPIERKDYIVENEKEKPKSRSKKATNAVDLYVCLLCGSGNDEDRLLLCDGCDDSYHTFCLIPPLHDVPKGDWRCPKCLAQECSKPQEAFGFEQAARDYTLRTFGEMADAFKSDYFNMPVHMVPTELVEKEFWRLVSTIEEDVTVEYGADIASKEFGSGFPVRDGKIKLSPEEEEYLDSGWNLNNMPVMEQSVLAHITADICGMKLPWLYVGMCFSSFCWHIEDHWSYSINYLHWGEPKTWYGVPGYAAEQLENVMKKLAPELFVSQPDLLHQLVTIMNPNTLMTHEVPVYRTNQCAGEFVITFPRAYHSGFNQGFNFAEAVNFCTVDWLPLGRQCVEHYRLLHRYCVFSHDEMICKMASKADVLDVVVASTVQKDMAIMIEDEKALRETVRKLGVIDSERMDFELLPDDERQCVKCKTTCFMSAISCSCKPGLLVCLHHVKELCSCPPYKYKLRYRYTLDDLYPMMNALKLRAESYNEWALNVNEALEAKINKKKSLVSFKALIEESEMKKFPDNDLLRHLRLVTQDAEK
# Outline: as §4
# FBXL10 (KDM2B) = target: T4, FBXL10 (KDM2B) (Homo sapiens, UniProt Q8NHM5); assay: Histone lysine demethylase AlphaLISA assay, FBXL10; conditions: substrate BH3K36M2
# T4 construct: 1-650; purchased BPS, Bioscience, US; host or cells: Bac (baculovirus)
# T4 sequence (Q8NHM5 1-650): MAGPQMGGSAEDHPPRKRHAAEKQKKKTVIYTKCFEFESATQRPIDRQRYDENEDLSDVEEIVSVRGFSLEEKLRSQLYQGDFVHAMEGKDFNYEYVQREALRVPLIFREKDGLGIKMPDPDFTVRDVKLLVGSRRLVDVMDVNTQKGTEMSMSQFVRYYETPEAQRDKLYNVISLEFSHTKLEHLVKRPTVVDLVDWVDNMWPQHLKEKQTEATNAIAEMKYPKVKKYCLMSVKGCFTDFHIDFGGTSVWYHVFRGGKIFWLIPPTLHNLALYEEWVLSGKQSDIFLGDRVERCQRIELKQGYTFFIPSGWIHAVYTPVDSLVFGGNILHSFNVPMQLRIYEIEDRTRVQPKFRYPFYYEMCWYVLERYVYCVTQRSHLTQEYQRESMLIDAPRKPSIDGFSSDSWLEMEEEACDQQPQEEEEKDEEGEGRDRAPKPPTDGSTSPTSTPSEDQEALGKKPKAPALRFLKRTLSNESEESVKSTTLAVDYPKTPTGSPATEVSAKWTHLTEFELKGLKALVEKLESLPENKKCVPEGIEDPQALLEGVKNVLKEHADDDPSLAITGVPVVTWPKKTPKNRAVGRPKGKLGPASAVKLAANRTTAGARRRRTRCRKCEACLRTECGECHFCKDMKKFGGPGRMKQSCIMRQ
# Description: as §1, §2, §3
# JMJD2A (KDM4A) = target: T5, JMJD2A (KDM4A) (Homo sapiens, UniProt O75164); assay: Histone lysine demethylase AlphaLISA assay, JMJD2A; conditions: substrate BK9M3
# T5 construct: 1-350; purchased BPS, Bioscience, US; host or cells: E. coli
# T5 sequence (O75164 1-350): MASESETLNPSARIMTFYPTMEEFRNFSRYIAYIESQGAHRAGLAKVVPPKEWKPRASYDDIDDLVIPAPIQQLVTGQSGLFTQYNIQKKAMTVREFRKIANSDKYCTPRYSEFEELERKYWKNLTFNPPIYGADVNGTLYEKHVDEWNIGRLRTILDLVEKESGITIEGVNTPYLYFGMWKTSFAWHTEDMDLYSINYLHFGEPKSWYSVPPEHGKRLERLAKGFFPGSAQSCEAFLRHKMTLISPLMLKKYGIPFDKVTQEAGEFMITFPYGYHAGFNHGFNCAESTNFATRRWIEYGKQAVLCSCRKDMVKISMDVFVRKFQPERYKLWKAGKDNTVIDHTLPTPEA
# Description: as §1, §2, §3
# JMJD3 (KDM6B) = target: T6, JMJD3 (KDM6B) (Homo sapiens, UniProt O15054); assay: Histone lysine demethylase AlphaLISA assay, JMJD3; conditions: substrate BK27M3
# T6 construct: 1043-end; purchased BPS; host or cells: Bac (baculovirus)
# T6 sequence (O15054 1043-1682 isoform O15054-1 limits assumed): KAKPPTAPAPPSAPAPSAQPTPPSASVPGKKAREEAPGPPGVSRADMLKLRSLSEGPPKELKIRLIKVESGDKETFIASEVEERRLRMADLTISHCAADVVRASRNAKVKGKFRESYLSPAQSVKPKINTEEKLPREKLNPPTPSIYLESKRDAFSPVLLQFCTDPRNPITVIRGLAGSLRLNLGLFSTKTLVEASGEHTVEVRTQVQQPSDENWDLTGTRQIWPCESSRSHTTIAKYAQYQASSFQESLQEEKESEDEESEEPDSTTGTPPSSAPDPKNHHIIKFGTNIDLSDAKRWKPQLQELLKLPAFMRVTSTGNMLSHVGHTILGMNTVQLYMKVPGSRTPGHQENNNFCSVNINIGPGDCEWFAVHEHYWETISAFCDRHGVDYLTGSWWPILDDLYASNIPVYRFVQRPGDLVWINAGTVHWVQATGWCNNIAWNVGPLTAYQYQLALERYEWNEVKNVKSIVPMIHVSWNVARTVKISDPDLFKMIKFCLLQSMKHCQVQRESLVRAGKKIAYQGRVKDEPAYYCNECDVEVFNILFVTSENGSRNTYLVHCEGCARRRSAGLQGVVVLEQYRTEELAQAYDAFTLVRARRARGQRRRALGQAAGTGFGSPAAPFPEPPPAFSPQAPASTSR
# Description: as §1, §2, §3
# JARID1C (KDM5C) = target: T7, JARID1C (KDM5C) (Homo sapiens, UniProt P41229); assay: Histone lysine demethylase AlphaLISA assay, JARID1C; conditions: substrate H3K4M3B
# T7 construct: 2-1560; purchased BPS; host or cells: Bac (baculovirus)
# T7 sequence (P41229 2-1560): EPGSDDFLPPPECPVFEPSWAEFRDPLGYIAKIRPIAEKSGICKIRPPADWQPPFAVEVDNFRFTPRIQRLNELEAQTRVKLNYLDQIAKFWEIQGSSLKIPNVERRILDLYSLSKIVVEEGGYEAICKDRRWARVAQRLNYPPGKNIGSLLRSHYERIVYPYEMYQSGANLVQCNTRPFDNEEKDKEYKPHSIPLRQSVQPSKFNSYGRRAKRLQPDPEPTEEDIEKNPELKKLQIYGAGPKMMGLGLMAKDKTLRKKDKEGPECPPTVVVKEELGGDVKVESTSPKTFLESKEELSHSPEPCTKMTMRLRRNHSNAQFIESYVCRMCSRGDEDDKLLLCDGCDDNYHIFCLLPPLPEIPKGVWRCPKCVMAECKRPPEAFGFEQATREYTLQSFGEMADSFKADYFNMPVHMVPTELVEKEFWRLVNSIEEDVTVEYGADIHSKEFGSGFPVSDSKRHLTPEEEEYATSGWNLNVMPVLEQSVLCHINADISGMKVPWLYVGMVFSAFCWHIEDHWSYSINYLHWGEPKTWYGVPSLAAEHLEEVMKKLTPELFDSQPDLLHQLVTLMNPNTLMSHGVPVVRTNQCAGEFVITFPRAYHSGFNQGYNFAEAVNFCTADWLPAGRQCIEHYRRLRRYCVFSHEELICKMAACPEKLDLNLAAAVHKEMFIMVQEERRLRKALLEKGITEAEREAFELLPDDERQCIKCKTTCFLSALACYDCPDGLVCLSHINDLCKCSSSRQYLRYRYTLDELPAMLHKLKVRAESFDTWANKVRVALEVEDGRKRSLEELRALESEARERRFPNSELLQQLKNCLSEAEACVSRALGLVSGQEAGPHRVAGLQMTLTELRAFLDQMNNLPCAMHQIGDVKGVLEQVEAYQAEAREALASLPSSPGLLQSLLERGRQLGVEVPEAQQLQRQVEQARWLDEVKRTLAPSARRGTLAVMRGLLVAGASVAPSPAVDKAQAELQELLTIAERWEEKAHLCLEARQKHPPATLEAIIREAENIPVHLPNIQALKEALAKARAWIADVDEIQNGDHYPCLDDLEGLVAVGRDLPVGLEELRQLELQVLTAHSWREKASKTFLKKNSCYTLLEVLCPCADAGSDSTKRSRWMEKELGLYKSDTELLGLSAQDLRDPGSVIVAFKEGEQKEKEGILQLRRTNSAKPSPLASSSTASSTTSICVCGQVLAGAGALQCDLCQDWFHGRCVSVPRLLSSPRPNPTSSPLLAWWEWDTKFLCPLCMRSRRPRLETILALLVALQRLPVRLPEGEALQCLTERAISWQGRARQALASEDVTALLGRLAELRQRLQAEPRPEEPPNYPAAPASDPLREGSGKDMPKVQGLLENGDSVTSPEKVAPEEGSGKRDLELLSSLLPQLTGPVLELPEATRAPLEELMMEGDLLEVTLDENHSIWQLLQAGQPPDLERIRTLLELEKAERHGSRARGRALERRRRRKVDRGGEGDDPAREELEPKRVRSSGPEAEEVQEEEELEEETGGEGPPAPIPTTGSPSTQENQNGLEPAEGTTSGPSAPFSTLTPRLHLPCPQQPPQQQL
# Description: as §1, §2, §3
# T1 sequence (O15550 919-1401): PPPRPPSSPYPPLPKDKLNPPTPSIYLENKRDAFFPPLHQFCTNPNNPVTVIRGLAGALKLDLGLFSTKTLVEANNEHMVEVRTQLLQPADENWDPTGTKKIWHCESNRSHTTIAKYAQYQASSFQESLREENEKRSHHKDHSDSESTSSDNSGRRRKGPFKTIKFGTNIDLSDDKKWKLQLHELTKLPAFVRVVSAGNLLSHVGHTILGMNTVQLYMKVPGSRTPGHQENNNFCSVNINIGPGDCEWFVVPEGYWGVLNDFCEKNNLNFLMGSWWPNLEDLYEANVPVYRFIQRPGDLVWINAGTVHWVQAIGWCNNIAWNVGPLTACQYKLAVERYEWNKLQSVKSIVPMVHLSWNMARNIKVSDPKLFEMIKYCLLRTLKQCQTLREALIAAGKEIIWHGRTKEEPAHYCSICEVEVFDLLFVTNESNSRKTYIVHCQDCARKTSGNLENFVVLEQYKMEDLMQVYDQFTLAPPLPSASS
Structure (SMILES),IC50 (UTX (KDM6A)) [nM],"IC50 (GASC1 (KDM4C, JMJD2C)) [nM]",IC50 (PLU1 (KDM5B)) [nM],IC50 (FBXL10 (KDM2B)) [nM],IC50 (JMJD2A (KDM4A)) [nM],IC50 (JMJD3 (KDM6B)) [nM],IC50 (JARID1C (KDM5C)) [nM]
"O=C(O)c1ccnc(CN(CC(=O)N2CCCCC2)Cc2ccccc2)c1 [#83, 2-({benzyl[2-oxo-2-(piperidin-1-yl)ethyl]amino}methyl)pyridine-4-carboxylic acid]",–,≥ 1000,≥ 1000,100 to 1000,–,–,–
"CCN(CCN(C)C)C(=O)CNCc1cc(C(=O)OCCF)ccn1 [#90, 2-fluoroethyl 2-{[({[2-(dimethylamino)ethyl](ethyl)carbamoyl}methyl)amino]methyl}pyridine-4-carboxylate]",< 100,100 to 1000,< 100,≥ 1000,–,–,–
"CCCCN(CC(=O)N1CCCCC1)Cc1cc(C(=O)O)ccn1 [#82, 2-({butyl[2-oxo-2-(piperidin-1-yl)ethyl]amino}methyl)pyridine-4-carboxylic acid]",–,≥ 1000,≥ 1000,100 to 1000,–,–,–
"O=C(O)c1ccnc(CNCCCn2ccnc2)c1 [#1, 2-({[3-(1H-imidazol-1-yl)propyl]amino}methyl)pyridine-4-carboxylic acid]",≥ 1000,100 to 1000,–,≥ 1000,< 100,≥ 1000,< 100
"CCN(CCN(C)C)C(=O)CNCc1cc(C(=O)N2CCOC2=O)ccn1 [#72, N-[2-(dimethylamino)ethyl]-N-ethyl-2-({[4-(2-oxo-1,3-oxazolidine-3-carbonyl)pyridin-2-yl]methyl}amino)acetamide]",–,< 100,< 100,≥ 1000,–,–,–
"O=C(O)c1ccnc(CN2CCC2)c1 [#79, 2-(azetidin-1-ylmethyl)pyridine-4-carboxylic acid]",–,≥ 1000,≥ 1000,≥ 1000,–,–,–
"CCN(CCN(C)C)C(=O)CNCc1cc(C(=O)OCC(F)F)ccn1 [#91, 2,2-difluoroethyl 2-{[({[2-(dimethylamino)ethyl](ethyl)carbamoyl}methyl)amino]methyl}pyridine-4-carboxylate]",< 100,< 100,< 100,≥ 1000,–,–,–
"CCCN(CC(=O)N1CCCCC1)Cc1cc(C(=O)O)ccn1 [#87, 2-({[2-oxo-2-(piperidin-1-yl)ethyl](propyl)amino}methyl)pyridine-4-carboxylic acid]",< 100,≥ 1000,100 to 1000,100 to 1000,–,–,–
"CCN(CCN(C)C)C(=O)CNCc1cc(C(=O)OCC(F)(F)F)ccn1 [#80, 2,2,2-trifluoroethyl 2-{[({[2-(dimethylamino)ethyl](ethyl)carbamoyl}methyl)amino]methyl}pyridine-4-carboxylate]",–,< 100,< 100,≥ 1000,–,–,–
"CC(C)C[C@H](NCc1cc(C(=O)O)ccn1)C(=O)NC(C)(C)C [#92, 2-({[(1S)-1-(tert-butylcarbamoyl)-3-methylbutyl]amino}methyl)pyridine-4-carboxylic acid]",100 to 1000,≥ 1000,≥ 1000,100 to 1000,–,–,–
"CCCCCCCCCCCCCCCC(=O)OCC(COC(=O)CCCCCCCCCCCCCCC)OC(=O)c1ccnc(CNCC(=O)N(CC)CCN(C)C)c1 [#68, 2-(2-{[({[2-(dimethylamino)ethyl](ethyl)carbamoyl}methyl)amino]methyl}pyridine-4-carbonyloxy)-3-(hexadecanoyloxy)propyl hexadecanoate]",< 100,100 to 1000,100 to 1000,≥ 1000,–,–,–

# Continued, values first:
IC50 (UTX (KDM6A)) [nM],"IC50 (GASC1 (KDM4C, JMJD2C)) [nM]",IC50 (PLU1 (KDM5B)) [nM],IC50 (FBXL10 (KDM2B)) [nM],IC50 (JMJD2A (KDM4A)) [nM],IC50 (JMJD3 (KDM6B)) [nM],IC50 (JARID1C (KDM5C)) [nM],Structure (SMILES)
< 100,≥ 1000,≥ 1000,100 to 1000,–,–,–,"CC(C)N(CC(=O)N1CCCCC1)Cc1cc(C(=O)O)ccn1 [#88, 2-({[2-oxo-2-(piperidin-1-yl)ethyl](propan-2-yl)amino}methyl)pyridine-4-carboxylic acid]"
≥ 1000,< 100,< 100,100 to 1000,–,–,–,"CCN(CCN(C)C)C(=O)CNCc1cc(C(=O)N(C)S(C)(=O)=O)ccn1 [#71, 2-{[({[2-(dimethylamino)ethyl](ethyl)carbamoyl}methyl)amino]methyl}-N-methanesulfonyl-N-methylpyridine-4-carboxamide]"
–,100 to 1000,100 to 1000,100 to 1000,–,–,–,"CCN(CC(=O)N1CCCCC1)Cc1cc(C(=O)O)ccn1 [#81, 2-({ethyl[2-oxo-2-(piperidin-1-yl)ethyl]amino}methyl)pyridine-4-carboxylic acid]"
< 100,≥ 1000,≥ 1000,100 to 1000,–,–,–,"CC(C)CN(CC(=O)N1CCCCC1)Cc1cc(C(=O)O)ccn1 [#86, 2-{[(2-methylpropyl)[2-oxo-2-(piperidin-1-yl)ethyl]amino]methyl}pyridine-4-carboxylic acid]"
< 100,< 100,< 100,≥ 1000,–,–,–,"CCN(CCN(C)C)C(=O)CNCc1cc(C(=O)OC)ccn1 [#70, methyl 2-{[({[2-(dimethylamino)ethyl](ethyl)carbamoyl}methyl)amino]methyl}pyridine-4-carboxylate]"

# Reference: patent US10221139B2, “Inhibitors of histone demethylases” (Gilead Sciences, Inc., priority 2012, dated 2019)
